“Also recorded” adds a separate entry of the source.
Key:
[1] = test system: tumor cells; conditions: cited from earlier work
[2] = test system: HCT116 p53−/− tumors; experiment: Radio-sensitization in mice bearing HCT116 p53-/- xenografts; format: in vivo; conditions: 1 mg/kg i.p. every day for 10 days, γ-irradiation 3 Gy 1 hour after injection, nu/nu mice
From the text: (§1) Immunodeficient mice bearing subcutaneous tumors allow easy access of the tumors to defined fractionated irradiation doses with minimal effect on surrounding tissues and without the need of anesthesia. This latter point is important because anesthesia can modify the response to radiation therapy (Denekamp, 1979) and anesthesia is generally not used in patients during radiotherapy.
(§2) HCT116 tumor cells, lacking or not p53, were grafted onto the back of female Swiss homozygous nu/nu mice leading to the development of subcutaneous tumors. Then, the immunodeficient mice bearing subcutaneous tumors were divided into four experimental groups as follows:
(§3) 1) Intraperitoneal PBS injections and no irradiation. 2) Intraperitoneal TAT-RasGAP317-326 injections (every day, 1 mg peptide per kg of mouse in 300 μl PBS) and no irradiation. 3) Intraperitoneal PBS injection and γ-irradiation (3 Gy). 4) Intraperitoneal TAT-RasGAP317-326 injections and γ-irradiation.
(§4) The treatments (i.e. peptide injections followed by irradiation) were performed every day for 10 days without interruption. γ-irradiation was performed 1 hour after the peptide injection. The size of the tumors was monitored 3 times a week. #: mice were sacrificed when the tumors reached a volume of about 800 mm^3.

[3] = test system: HaCaT cells; experiment: Clonogenic assay (CFA) after γ-irradiation, non-tumorigenic HaCaT; format: cell-based; conditions: 20 μM peptide, γ radiation 0, 1, 2 or 4 Gray, colonies after two weeks
Protocol: (§5) After two weeks, the culture medium was removed and the plates were gently washed with water. A crystal violet solution (0.5% crystal violet in 25% methanol) was then added to stain colonies and gently washed out with water. The number of colonies was then counted.
(§6) The clonogenic formation assay (CFA) was performed using cancer cell lines (HCT116 with or without p53) (FIG. 1A-B) and non-tumorigenic HaCaT cells (FIG. 1C) that were subjected to the various doses of γ radiation (0, 1, 2, or 4, Gray), in the presence or in absence of TAT-RasGAP317-326 (20 μM). The number of colonies was determined two weeks after irradiation.

[4] = test system: HCT116 xenografts; experiment: Radio-sensitization in mice bearing HCT116 xenografts; format: in vivo; conditions: 1 mg/kg i.p. every day for 10 days, γ-irradiation 3 Gy 1 hour after injection, nu/nu mice
From the text: as §1, §2, §3, §4

[5] = test system: HCT116p53−/− cells; experiment: Clonogenic assay (CFA) after γ-irradiation, HCT116 p53-/-; format: cell-based; conditions: 20 μM peptide, γ radiation 0-8 Gray, colonies counted after two weeks
Protocol: (§7) One hundred HeLa cells or 500 HCT116p53^+/+ or 500 HCT116p53^−/− cells were seeded in 8.5 cm plates and after 24 hours later treated or not with TAT or TAT-RasGAP317-326 (20 μM) prior exposure to the various doses of γ radiation (0, 1, 2, 4, 6 or 8 Gray).
as §5, §6

[6] = test system: HCT116p53+/+ cells; experiment: Clonogenic assay (CFA) after γ-irradiation, HCT116 p53+/+; format: cell-based; conditions: 20 μM peptide, γ radiation 0-8 Gray, colonies counted after two weeks
Protocol: as §7, §5, §6

[7] = test system: tumor growth; conditions: cited from earlier work

Substance: TAT-RasGAP317-326: HIV-TAT48-57 peptide conjugated to RasGAP317-326 (WMWVTNLRTD) with two glycine residues as spacer; cell permeable peptide (GRKKRRQRRRGGWMWVTNLRTD)
- sensitization of non-tumor cells to genotoxin-induced apoptosis ([1]; non-tumor cells): nor does it sensitize non-tumor cells
- apoptosis of tumor cells by the peptide alone ([1]; peptide by itself): does not by itself modulate apoptosis of tumor cells
- sensitization of tumor cells to genotoxin-induced death ([1]; tumor cells with genotoxin): specifically sensitizes tumor cells to genotoxin-induced death
- growth of irradiated HCT116 p53−/− tumors [2]: very efficiently hampered
- γ-radiation-sensitivity of non-cancer cells (number of colonies) [3]: not in a non-cancer cell line; also recorded: no influence on the γ-radiation-sensitivity
- tumor growth / tumor volume of irradiated tumors [4]: significant growth delay and reduction in tumor volume
- efficacy of γ-irradiation-mediated cell killing (number of colonies) [5]: increases the efficacy of γ-irradiation-mediated cell killing
- efficacy of γ-irradiation-mediated cell killing (number of colonies) [6]: increases the efficacy of γ-irradiation-mediated cell killing
- ability of cisplatin and other genotoxins to inhibit tumor growth ([7]; combined with genotoxins): increases the ability of cisplatin and other genotoxins to inhibit tumor growth
- dose still exerting genotoxin-sensitization on tumor growth, relative to lethal doses ([7]; mouse, in vivo): > 100 fold below the lethal doses

— patent US20130130991A1, “USE OF A PEPTIDE ENHANCING THE ABILITY OF RADIATION THERAPY TO KILL CANCER CELLS” (UNIVERSITE DE LAUSANNE, priority 2010, published 2013)
